# Assay results published in patent US9149038B2, “4-amino-6-(heterocyclic)picolinates and 6-amino-2-(heterocyclic)pyrimidine-4-carboxylates and their use as herbicides” (Dow AgroSciences LLC, priority 2013, dated 2015).
# Where two headings read alike, the source gives them in different places.
# Experiments:
# [1] = tested on: Key Broadleaf Weed and Crop Species; test: Post-Emergent Test II: postemergent herbicidal activity, visual rating after 14 d (Table 7); format: in vivo; details: post-emergence, 336 h; for pest or weed control at 35 g/ha: 35 g ai/ha; for pest or weed control at 70 g/ha: 70 g ai/ha; for pest or weed control at 140 g/ha: 140 g ai/ha
# Summary of the method: (§1)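 Scoring is visual, 0-100, at 14 d after application, comparing treated with untreated plants. Application: overhead track spray at 187 L/ha onto seedlings at 1-2 true leaves, in surfactant/crop-oil carrier.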
# [2] = tested on: Key Grass and Sedge Weeds as well as Grass Crops; test: Post-Emergent Test II: postemergent herbicidal activity, visual rating after 14 d (Table 8); format: in vivo; details: post-emergence, 336 h; for pest or weed control at 35 g/ha: 35 g ai/ha; for pest or weed control at 70 g/ha: 70 g ai/ha; for pest or weed control at 140 g/ha: 140 g ai/ha
# Summary of the method: as §1
# [3] = ABUTH: velvetleaf (Abutilon theophrasti), read-out: Visual Growth Reduction (%) 14 Days After Application ABUTH
# [4] = AMARE: redroot pigweed (Amaranthus retroflexus), read-out: Visual Growth Reduction (%) 14 Days After Application AMARE
# [5] = BRSNN: oilseed rape, canola (Brassica napus), read-out: Visual Growth Reduction (%) 14 Days After Application BRSNN
# [6] = CHEAL: lambsquarters (Chenopodium album), read-out: Visual Growth Reduction (%) 14 Days After Application CHEAL
# [7] = EPHHL: wild poinsettia (Euphorbia heterophylla), read-out: Visual Growth Reduction (%) 14 Days After Application EPHHL
# [8] = HELAN: sunflower (Helianthus annuus), read-out: Visual Growth Reduction (%) 14 Days After Application HELAN
# [9] = barnyardgrass (Echinochloa crus-galli), read-out: Visual Growth Reduction (%) 14 Days After Application, ECHCG
# [10] = giant foxtail (Setaria faberi), read-out: Visual Growth Reduction (%) 14 Days After Application, SETFA
# [11] = maize, corn (Zea mays), read-out: Visual Growth Reduction (%) 14 Days After Application, ZEAMX
# [12] = rice (Oryza sativa), read-out: Visual Growth Reduction (%) 14 Days After Application, ORYSA
# [13] = wheat, spring (Triticum aestivum), read-out: Visual Growth Reduction (%) 14 Days After Application, TRZAS
# [14] = yellow nutsedge (Cyperus esculentus), read-out: Visual Growth Reduction (%) 14 Days After Application, CYPES
compound,measurement,setting,value
"COC(=O)c1nc(-c2ccc3c(c2)OCC3)c(F)c(N)c1Cl [Compound 100, Methyl 4-amino-3-chloro-6-(2,3-dihydrobenzofuran-6-yl)-5-fluoropicolinate]",pest or weed control at 35 g/ha,[1]; [3],45 to 59%
same,pest or weed control at 70 g/ha,[1]; [3],85 to 94%
same,pest or weed control at 140 g/ha,[1]; [3],95 to 100%
same,pest or weed control at 35 g/ha,[1]; [4],75 to 84%
same,pest or weed control at 70 g/ha,[1]; [4],95 to 100%
same,pest or weed control at 140 g/ha,[1]; [4],95 to 100%
same,pest or weed control at 35 g/ha,[1]; [5],0 to 29%
same,pest or weed control at 70 g/ha,[1]; [5],0 to 29%
same,pest or weed control at 140 g/ha,[1]; [5],0 to 29%
same,pest or weed control at 35 g/ha,[1]; [6],95 to 100%
same,pest or weed control at 70 g/ha,[1]; [6],95 to 100%
same,pest or weed control at 140 g/ha,[1]; [6],95 to 100%
same,pest or weed control at 35 g/ha,[1]; [7],95 to 100%
same,pest or weed control at 70 g/ha,[1]; [7],95 to 100%
same,pest or weed control at 140 g/ha,[1]; [7],95 to 100%
same,pest or weed control at 35 g/ha,[1]; [8],60 to 74%
same,pest or weed control at 70 g/ha,[1]; [8],60 to 74%
same,pest or weed control at 140 g/ha,[1]; [8],75 to 84%
same,pest or weed control at 35 g/ha,[2]; [9],45 to 59%
same,pest or weed control at 70 g/ha,[2]; [9],75 to 84%
same,pest or weed control at 140 g/ha,[2]; [9],85 to 94%
same,pest or weed control at 35 g/ha,[2]; [10],0 to 29%
same,pest or weed control at 70 g/ha,[2]; [10],0 to 29%
same,pest or weed control at 140 g/ha,[2]; [10],0 to 29%
same,pest or weed control at 35 g/ha,[2]; [11],0 to 29%
same,pest or weed control at 70 g/ha,[2]; [11],95 to 100%
same,pest or weed control at 140 g/ha,[2]; [11],95 to 100%
same,pest or weed control at 35 g/ha,[2]; [12],0 to 29%
same,pest or weed control at 70 g/ha,[2]; [12],0 to 29%
same,pest or weed control at 140 g/ha,[2]; [12],0 to 29%
same,pest or weed control at 35 g/ha,[2]; [13],0 to 29%
same,pest or weed control at 70 g/ha,[2]; [13],0 to 29%
same,pest or weed control at 140 g/ha,[2]; [13],0 to 29%
same,pest or weed control at 35 g/ha,[2]; [14],0 to 29%
same,pest or weed control at 70 g/ha,[2]; [14],0 to 29%
same,pest or weed control at 140 g/ha,[2]; [14],0 to 29%
Nc1c(F)c(-c2ccc3c(c2)OCC3)nc(C(=O)O)c1Cl [Compound 101],pest or weed control at 35 g/ha,[1]; [3],75 to 84%
same,pest or weed control at 70 g/ha,[1]; [3],85 to 94%
same,pest or weed control at 140 g/ha,[1]; [3],95 to 100%
same,pest or weed control at 35 g/ha,[1]; [4],95 to 100%
same,pest or weed control at 70 g/ha,[1]; [4],95 to 100%
same,pest or weed control at 140 g/ha,[1]; [4],95 to 100%
same,pest or weed control at 35 g/ha,[1]; [5],0 to 29%
same,pest or weed control at 70 g/ha,[1]; [5],85 to 94%
same,pest or weed control at 140 g/ha,[1]; [5],95 to 100%
same,pest or weed control at 35 g/ha,[1]; [6],95 to 100%
same,pest or weed control at 70 g/ha,[1]; [6],95 to 100%
same,pest or weed control at 140 g/ha,[1]; [6],95 to 100%
same,pest or weed control at 35 g/ha,[1]; [7],0 to 29%
same,pest or weed control at 70 g/ha,[1]; [7],0 to 29%
same,pest or weed control at 140 g/ha,[1]; [7],30 to 44%
same,pest or weed control at 35 g/ha,[1]; [8],85 to 94%
same,pest or weed control at 70 g/ha,[1]; [8],85 to 94%
same,pest or weed control at 140 g/ha,[1]; [8],85 to 94%
same,pest or weed control at 35 g/ha,[2]; [9],60 to 74%
same,pest or weed control at 70 g/ha,[2]; [9],60 to 74%
same,pest or weed control at 140 g/ha,[2]; [9],75 to 84%
same,pest or weed control at 35 g/ha,[2]; [11],0 to 29%
same,pest or weed control at 70 g/ha,[2]; [11],0 to 29%
same,pest or weed control at 140 g/ha,[2]; [11],0 to 29%
same,pest or weed control at 35 g/ha,[2]; [12],0 to 29%
same,pest or weed control at 70 g/ha,[2]; [12],0 to 29%
same,pest or weed control at 140 g/ha,[2]; [12],0 to 29%
same,pest or weed control at 35 g/ha,[2]; [13],0 to 29%
same,pest or weed control at 70 g/ha,[2]; [13],0 to 29%
same,pest or weed control at 140 g/ha,[2]; [13],0 to 29%
same,pest or weed control at 35 g/ha,[2]; [14],0 to 29%
same,pest or weed control at 70 g/ha,[2]; [14],0 to 29%
same,pest or weed control at 140 g/ha,[2]; [14],0 to 29%
COC(=O)c1nc(-c2cccc3c2OCC3)c(F)c(N)c1Cl [Compound 102],pest or weed control at 35 g/ha,[1]; [3],0 to 29%
same,pest or weed control at 70 g/ha,[1]; [3],0 to 29%
same,pest or weed control at 140 g/ha,[1]; [3],45 to 59%
same,pest or weed control at 35 g/ha,[1]; [5],0 to 29%
same,pest or weed control at 70 g/ha,[1]; [5],0 to 29%
same,pest or weed control at 140 g/ha,[1]; [5],0 to 29%
same,pest or weed control at 35 g/ha,[1]; [6],95 to 100%
same,pest or weed control at 70 g/ha,[1]; [6],95 to 100%
same,pest or weed control at 140 g/ha,[1]; [6],95 to 100%
same,pest or weed control at 35 g/ha,[1]; [7],0 to 29%
same,pest or weed control at 70 g/ha,[1]; [7],0 to 29%
same,pest or weed control at 140 g/ha,[1]; [7],0 to 29%
same,pest or weed control at 35 g/ha,[1]; [8],75 to 84%
same,pest or weed control at 70 g/ha,[1]; [8],85 to 94%
same,pest or weed control at 140 g/ha,[1]; [8],85 to 94%
same,pest or weed control at 35 g/ha,[2]; [9],0 to 29%
same,pest or weed control at 70 g/ha,[2]; [9],0 to 29%
same,pest or weed control at 140 g/ha,[2]; [9],0 to 29%
same,pest or weed control at 35 g/ha,[2]; [10],0 to 29%
same,pest or weed control at 70 g/ha,[2]; [10],0 to 29%
same,pest or weed control at 140 g/ha,[2]; [10],0 to 29%
same,pest or weed control at 35 g/ha,[2]; [11],0 to 29%
same,pest or weed control at 70 g/ha,[2]; [11],0 to 29%
same,pest or weed control at 140 g/ha,[2]; [11],0 to 29%
same,pest or weed control at 35 g/ha,[2]; [12],0 to 29%
same,pest or weed control at 70 g/ha,[2]; [12],0 to 29%
same,pest or weed control at 140 g/ha,[2]; [12],0 to 29%
same,pest or weed control at 35 g/ha,[2]; [13],0 to 29%
same,pest or weed control at 70 g/ha,[2]; [13],0 to 29%
same,pest or weed control at 140 g/ha,[2]; [13],0 to 29%
same,pest or weed control at 35 g/ha,[2]; [14],0 to 29%
same,pest or weed control at 70 g/ha,[2]; [14],0 to 29%
same,pest or weed control at 140 g/ha,[2]; [14],0 to 29%
